According to US20050112573A1, “Method of detecting toxic substance” (priority 2001, published 2005):

System: yeast genes (level of expressed mRNA)
Assay: DNA chip analysis of expressed mRNA of yeast genes after 2 h culture with a toxic chemical substance
Type: cell-based, Saccharomyces cerevisiae S288C
How it was run: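 S. cerevisiae S288C grown at 25° C in YPD; toxicant added at log phase at growth-inhibitory, non-lethal levels for 2 h, untreated cells as control. Poly(A) mRNA reverse-transcribed with Cy3/Cy5-dUTP, hybridized to whole-genome chip at 65° C >12 h; value is fluorescence ratio versus untreated.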

For CdCl2 [(2)], the “The level of expressed mRNA in the presence of chemical substance/” value (yeast gene YNL074C, ratio to control without chemical substance, 2 h culture) was 1.3, the “The level of expressed mRNA in the presence of chemical substance/” value (yeast gene YNL092W, ratio to control without chemical substance, 2 h culture) was 1.4 and the “The level of expressed mRNA in the presence of chemical substance/The level of expressed mRNA in the absence of chemical substance” value (yeast gene YNL093W) was 6.4. The “The level of expressed mRNA in the presence of chemical substance/” value (yeast gene YNL115C, ratio to control without chemical substance, 2 h culture) was 1.8, the “The level of expressed mRNA in the presence of chemical substance/” value (yeast gene YNL156C, ratio to control without chemical substance, 2 h culture) was 1.2 and the “The level of expressed mRNA in the presence of chemical substance/” value (yeast gene YNL234W, ratio to control without chemical substance, 2 h culture) was 1.1. For the same substance, the “The level of expressed mRNA in the presence of chemical substance/” value (yeast gene YNL281W, ratio to control without chemical) was 1.3, the “The level of expressed mRNA in the presence of chemical substance/” value (yeast gene YNL305C, ratio to control without chemical) was 2.2 and the “The level of expressed mRNA in the presence of chemical substance/The level of expressed mRNA in the absence of chemical substance” value (yeast gene YNL333W) was 1.4. For the same substance, the “The level of expressed mRNA in the presence of chemical substance/The level of expressed mRNA in the absence of chemical substance” value (yeast gene YNR010W) was 1.2, the “The level of expressed mRNA in the presence of chemical substance/” value (yeast gene YNR068C, ratio to control without chemical) was 1.5 and the “The level of expressed mRNA in the presence of chemical substance/The level of expressed mRNA in the absence of chemical substance” value (yeast gene YNR069C) was 1.3. For the same substance, the “The level of expressed mRNA in the presence of chemical substance/in the absence of chemical substance” value (yeast gene YNR072W) was 1.5, the “The level of expressed mRNA in the presence of chemical substance/The level of expressed mRNA in the absence of chemical substance” value (yeast gene YOL013C) was 1.0 and the “The level of expressed mRNA in the presence of chemical substance/” value (yeast gene YOL032W, ratio to control without chemical) was 0.8. For the same substance, the “The level of expressed mRNA in the presence of chemical substance/” value (yeast gene YOL036W, ratio to control without chemical) was 0.9, the “The level of expressed mRNA in the presence of chemical substance/” value (yeast gene YOL047C, ratio to control without chemical) was 1.1 and the “The level of expressed mRNA in the presence of chemical substance/” value (yeast gene YOL071W, ratio to control without chemical) was 2.0. The “The level of expressed mRNA in the presence of chemical substance/” value (yeast gene YOL082W, ratio to control without chemical) was 1.6, the “The level of expressed mRNA in the presence of chemical substance/” value (yeast gene YOL083W, ratio to control without chemical) was 2.3 and the “The level of expressed mRNA in the presence of chemical substance/in the absence of chemical substance” value (yeast gene YOL096C) was 1.0. The “The level of expressed mRNA in the presence of chemical substance/” value (yeast gene YOL117W, ratio to control without chemical) was 1.1, the “The level of expressed mRNA in the presence of chemical substance/” value (yeast gene YOL131W, ratio to control without chemical) was 1.5 and the “The level of expressed mRNA in the presence of chemical substance/” value (yeast gene YOL150C, ratio to control without chemical substance, 2 h culture) was 3.7. For the same substance, the “The level of expressed mRNA in the presence of chemical substance/” value (yeast gene YOL162W, ratio to control without chemical) was 6.9, the “The level of expressed mRNA in the presence of chemical substance/The level of expressed mRNA in the absence of chemical substance” value (yeast gene YOL164W) was 4.4 and the “The level of expressed mRNA in the presence of chemical substance/” value (yeast gene YOR019W, ratio to control without chemical) was 1.2. For the same substance, the “The level of expressed mRNA in the presence of chemical substance/The level of expressed mRNA in the absence of chemical substance” value (yeast gene YOR036W) was 0.9, the “The level of expressed mRNA in the presence of chemical substance/The level of expressed mRNA in the absence of chemical substance” value (yeast gene YOR117W) was 1.3 and the “The level of expressed mRNA in the presence of chemical substance/The level of expressed mRNA in the absence of chemical substance” value (yeast gene YOR124C) was 1.1. The “The level of expressed mRNA in the presence of chemical substance/The level of expressed mRNA in the absence of chemical substance” value (yeast gene YOR132W) was 1.6, the “The level of expressed mRNA in the presence of chemical substance/The level of expressed mRNA in the absence of chemical substance” value (yeast gene YOR157C) was 1.3 and the “The level of expressed mRNA in the presence of chemical substance/in the absence of chemical substance” value (yeast gene YOR180C) was 1.1. The “The level of expressed mRNA in the presence of chemical substance/The level of expressed mRNA in the absence of chemical substance” value (yeast gene YOR181W) was 0.9, the “The level of expressed mRNA in the presence of chemical substance/The level of expressed mRNA in the absence of chemical substance” value (yeast gene YOR185C) was 1.3 and the “The level of expressed mRNA in the presence of chemical substance/” value (yeast gene YOR197W, ratio to control without chemical) was 1.0. For the same substance, the “The level of expressed mRNA in the presence of chemical substance/The level of expressed mRNA in the absence of chemical substance” value (yeast gene YOR198C) was 0.7, the “The level of expressed mRNA in the presence of chemical substance/The level of expressed mRNA in the absence of chemical substance” value (yeast gene YOR259C) was 1.1 and the “The level of expressed mRNA in the presence of chemical substance/The level of expressed mRNA in the absence of chemical substance” value (yeast gene YOR261C) was 1.4. For the same substance, the “The level of expressed mRNA in the presence of chemical substance/The level of expressed mRNA in the absence of chemical substance” value (yeast gene YOR288C) was 1.3, the “The level of expressed mRNA in the presence of chemical substance/The level of expressed mRNA in the absence of chemical substance” value (yeast gene YOR355W) was 0.6 and the “The level of expressed mRNA in the presence of chemical substance/in the absence of chemical substance” value (yeast gene YOR363C) was 2.0. For the same substance, the “The level of expressed mRNA in the presence of chemical substance/The level of expressed mRNA in the absence of chemical substance” value (yeast gene YOR383C) was 4.3, the “The level of expressed mRNA in the presence of chemical substance/” value (yeast gene YPL087W, ratio to control without chemical) was 5.1 and the “The level of expressed mRNA in the presence of chemical substance/The level of expressed mRNA in the absence of chemical substance” value (yeast gene YPL089C) was 1.0. For the same substance, the “The level of expressed mRNA in the presence of chemical substance/The level of expressed mRNA in the absence of chemical substance” value (yeast gene YPL109C) was 2.5, the “The level of expressed mRNA in the presence of chemical substance/The level of expressed mRNA in the absence of chemical substance” value (yeast gene YPL149W) was 1.5 and the “The level of expressed mRNA in the presence of chemical substance/The level of expressed mRNA in the absence of chemical substance” value (yeast gene YPL154C) was 3.3. The “The level of expressed mRNA in the presence of chemical substance/” value (yeast gene YPL196W, ratio to control without chemical) was 1.6, the “The level of expressed mRNA in the presence of chemical substance/” value (yeast gene YPL206C, ratio to control without chemical) was 2.9 and the “The level of expressed mRNA in the presence of chemical substance/” value (yeast gene YPL222W, ratio to control without chemical) was 3.5. The “The level of expressed mRNA in the presence of chemical substance/” value (yeast gene YPR023C, ratio to control without chemical) was 1.4, the “The level of expressed mRNA in the presence of chemical substance/The level of expressed mRNA in the absence of chemical substance” value (yeast gene YPR103W) was 1.1 and the “The level of expressed mRNA in the presence of chemical substance/The level of expressed mRNA in the absence of chemical substance” value (yeast gene YPR108W) was 1.0. For the same substance, the “The level of expressed mRNA in the presence of chemical substance/” value (yeast gene YPR151C, ratio to control without chemical) was 2.0 and the “The level of expressed mRNA in the presence of chemical substance/in the absence of chemical substance” value (yeast gene YPR184W) was 1.4.
